From patent publication US7429605B2, “Phenylpyridine derivatives” (Hoffmann-La Roche Inc., priority 2005, dated 2008) come the findings set out here.

The structures appear in SMILES notation.

For this assay, the system named is HEK293 cells. Briefly: Viability assay in HEK293 cells (CellTiter-Glo Luminescent Cell Viability Assay). The note with it: Homo sapiens, 7 days (168 h) incubation, compound 3 μM to 0.00015 μM, ATP luminescence. The format is cell-based. How it is done: Viability Assay in HEK293 Cells
A viability assay was performed using the CellTiter-Glo® Luminescent Cell Viability Assay (see Promega Corporation's Technical Bulletin No. 288, pp. 1-11 [revised 2/04] which is hereby incorporated by reference in its entirety). This assay is a homogeneous method of determining the number of viable cells in culture based on quantitation of the ATP present, an indicator of metabolically active cells. The assay is designed for use with multiwell formats, making it ideal for automated high-throughput screening (HTS), cell proliferation and cytotoxicity assays. The homogeneous assay procedure involves adding a single reagent (containing luciferase, luciferan substrate, and buffer) directly to cells cultured in serum-supplemented medium. Cell washing, removal of medium and multiple pipetting steps are not required. The system detects as few as 15 cells/well in a 384-well format in 10 minutes after adding reagent and mixing.
The homogeneous “add-mix-measure” format results in cell lysis and generation of a luminescent signal proportional to the amount of ATP present. The amount of ATP is directly proportional to the number of cells present in culture. The above-referenced assay generates a “glow-type” luminescent signal, produced by the luciferase reaction, which has a half-life generally greater than five hours, depending on cell type and medium used. The extended half-life eliminates the need to use reagent injectors and provides flexibility for continuous or batch mode processing of multiple plates. The unique homogeneous format avoids errors that may be introduced by other ATP measurement methods that require multiple steps.
HEK293 cells (human embryonic kidney cell line transformed by Adenovirus 5 fragments, ATCC-No. CRL 1573) were cultivated in Dulbecco's Modified Eagle Medium (DMEM) with Glutamax™ (cell culture media that contains L-Alanyl-L-Glutamine [a stabilized form/source of L-Glutamine] from Invitrogen, Cat-No. 31966-021), 5% Fetal Calf Serum (FCS, Sigma Cat-No. F4135 (FBS)), 100 Units/ml penicillin/100 μg/ml streptomycin (=Pen/Strep from Invitrogen Cat. No. 15140). For the assay the cells were seeded in 384 well plates, 5000 cells per well, in the same medium. The next day the test compounds were added in various concentrations ranging from 3 μM to 0.00015 μM (10 concentrations, 1:3 diluted). After 7 days the viability assay was done according to the instructions of the manufacturer. In brief: the cell-plate was equilibrated to room temperature for approximately 30 minutes and than the reagent (containing luciferase, luciferan substrate, and buffer) was added. The contents were carefully mixed for 15 minutes to induce cell lysis. After 45 minutes the luminescent signal was measured in Victor 2, (scanning multiwell spectrophotometer, Wallac).
Medium: Dulbecco's Modified Eagle Medium (DMEM) with Glutamax™ (Invitrogen, 31966-021), 5% Fetal Calf Serum (FCS, Sigma Cat-No. F4135 (FBS)), Pen/Strep (Invitrogen Cat. No. 15140).
Incubate 24 h at 37° C., 5% CO2
2. day Induction (Substance testing):
In general the dilution steeps are 1:3 a) Add 8 μl of 10 mM stock solution of compound to 72 μl DMSO b) dilute 9×1:3 (always 30 μl to 60 μl DMSO) in this DMSO dilution row (results in 10 wells with concentrations from 1000 μM to 0.06 μM) c) dilute each concentration 1:4.8 (10 μl compound dilution to 38 μd medium) d) dilute each concentration 1:10 (10 μl compound dilution to 90 μl medium) e) add 10 μl of every concentration to 60 μl medium in the cell plate resulting in final concentration of DMSO: 0.3% in every well and resulting in final concentration of compounds from 3 μM to 0.00015 μM Incubate 168 h (7 days) at 37° C., 5% CO2
Add 30 μl CellTiter-Glo™ Reagent (containing luciferase, luciferan substrate, and buffer)/well, shake 15 minutes at room temperature incubate further 45 minutes at room temperature without shaking.
Victor 2 scanning multiwell spectrophotometer (Wallac), Luminescence mode […]

The compound `Cc1cc(OCc2ccc(-c3ccc(C(F)(F)F)cc3)nc2C)ccc1CCCCn1ccnn1` [Example 6, 2-Methyl-3-[3-Methyl-4-(4-[1,2,3]triazol-1-yl-butyl)-phenoxymethyl]-6-(4-trifluoromethyl-phenyl)-pyridine] came in with an IC50 of 5 to 1000 nM. Next, `Cc1cc(OCc2ccc(-c3ccc(OC(F)(F)F)cc3)nc2)ccc1CCCCn1ccnn1` [Example 4, 5-[3-Methyl-4-(4-[1,2,3]triazol-1-yl-butyl)-phenoxymethyl]-[2-(4-trifluoromethoxy-phenyl)]-pyridine]: 365 nM.

For `Clc1ccc(-c2ccc(COc3ccc(CCCCn4ccnn4)cc3)cn2)cc1` [Example 27, 2-(4-Chloro-phenyl)-5-[4-(4-[1,2,3]triazol-1-yl-butyl)-phenoxymethyl]-pyridine], the concentration for half-maximal inhibition (IC50) lay within 5 to 1000 nM. For `Cc1cc(OCc2cncc(-c3ccc(Cl)cc3)c2)ccc1CCCCn1ccnn1` [Example 38, 3-(4-Chloro-phenyl)-5-[3-methyl-4-(4-[1,2,3]triazol-1-yl-butyl)-phenoxymethyl]-pyridine] the value was 1000 to 5000 nM; for `Cc1cc(OCc2cccc(-c3ccc(C(F)(F)F)cc3)n2)ccc1CCCCn1ccnn1` [Example 19, 2-[3-Methyl-4-(4-[1,2,3]triazol-1-yl-butyl)-phenoxymethyl]-6-(4-trifluoromethyl-phenyl)-pyridine], 5 to 1000 nM.

`Cc1nc(-c2ccc(C(F)(F)F)cc2)ccc1COc1ccc(C[S+]([O-])CCn2ccnn2)cc1` (stereo not drawn) [Example 9, 2-Methyl-3-[4-(2-[1,2,3]triazol-1-yl-ethanesulfinylmethyl)-phenoxymethyl]-6-(4-trifluoromethyl-phenyl)-pyridine]: the IC50 is 1000 to 5000 nM.

Consider `Cc1cc(OCc2ccc(-c3ccc(F)cc3)nc2C)ccc1CCCCn1ccnn1` [Example 17, 6-(4-Fluoro-phenyl)-2-methyl-3-[3-Methyl-4-(4-[1,2,3]triazol-1-yl-butyl)-phenoxymethyl]-pyridine], for which the IC50 is 5 to 1000 nM. Next, `Cc1cc(OCc2ccc(-c3cccc(C(F)(F)F)c3)nc2)ccc1CCCCn1ccnn1` [Example 26, 5-[3-Methyl-4-(4-[1,2,3]triazol-1-yl-butyl)-phenoxymethyl]-2-(3-trifluoromethyl-phenyl)-pyridine]: 1000 to 5000 nM.

For `FC(F)(F)c1ccc(-c2ccc(COc3ccc(CCCCn4ccnn4)cc3)cn2)cc1` [Example 3, 5-[4-(4-[1,2,3]triazol-1-yl-butyl)-phenoxymethyl]-[2-(4-trifluoromethyl-phenyl)]-pyridine], the concentration for half-maximal inhibition (IC50) is 5 to 1000 nM. For `Cc1cc(OCc2ccc(-c3ccc(Cl)cc3)nc2)ccc1CCCCn1ccnn1` [Example 28, 2-(4-Chloro-phenyl)-5-[3-methyl-4-(4-[1,2,3]triazol-1-yl-butyl)-phenoxymethyl]-pyridine] the value was 1000 to 5000 nM. For `Cc1cc(OCc2ccc(-c3ccc(Cl)cc3)nc2C)ccc1CCCCn1ccnn1` [Example 21, 6-(4-Chloro-phenyl)-2-methyl-3-[3-Methyl-4-(4-[1,2,3]triazol-1-yl-butyl)-phenoxymethyl]-pyridine] the value was 5 to 1000 nM; for `Cc1cc(OCc2ccc(-c3cccc(C(F)(F)F)c3)nc2C)ccc1CCCCn1ccnn1` [Example 13, 2-Methyl-3-[3-Methyl-4-(4-[1,2,3]triazol-1-yl-butyl)-phenoxymethyl]-6-(3-trifluoromethyl-phenyl)-pyridine], 1000 to 5000 nM. For `FC(F)(F)c1ccc(-c2cccc(COc3ccc(CCCCn4ccnn4)cc3)n2)cc1` [Example 18, 2-[4-(4-[1,2,3]triazol-1-yl-butyl)-phenoxymethyl]-6-(4-trifluoromethyl-phenyl)-pyridine] the value was 1000 to 5000 nM. `Cc1cc(OCc2ccc(-c3ccc(C(F)(F)F)cc3)nc2)ccc1CCCCn1ccnn1` [Example 5, 5-[3-Methyl-4-(4-[1,2,3]triazol-1-yl-butyl)-phenoxymethyl]-2-(4-trifluoromethyl-phenyl)-pyridine] gave an IC50 of 89 nM.

With `Cc1nc(-c2ccc(C(F)(F)F)cc2F)ccc1COc1ccc(CCCCn2ccnn2)cc1` [Example 43, 6-(2-Fluoro-4-trifluoromethyl-phenyl)-2-methyl-3-[4-(4-[1,2,3]triazol-1-yl-butyl)-phenoxymethyl]-pyridine], the IC50 lay within 1000 to 5000 nM. Turning to `Cc1cc(OCc2ccc(-c3ccc(OC(F)(F)F)cc3)nc2C)ccc1CCCCn1ccnn1` [Example 11, 2-Methyl-3-[3-Methyl-4-(4-[1,2,3]triazol-1-yl-butyl)-phenoxymethyl]-6-(4-trifluoromethoxy-phenyl)-pyridine], the IC50 fell in the range of 5 to 1000 nM. For `Cc1nc(-c2ccc(C(F)(F)F)cc2)ccc1COc1ccc(CCCCn2ccnn2)cc1` [Example 7, 2-Methyl-3-[4-(4-[1,2,3]triazol-1-yl-butyl)-phenoxymethyl]-6-(4-trifluoromethyl-phenyl)-pyridine] the value was 5 to 1000 nM.

`Cc1nc(-c2ccc(C(F)(F)F)cc2)ccc1COc1ccc(COCCn2ccnn2)cc1` [Example 8, 2-Methyl-3-[4-(2-[1,2,3]triazol-1-yl-ethoxymethyl)-phenoxymethyl]-6-(4-trifluoromethyl-phenyl)-pyridine] had an IC50 of 5 to 1000 nM.

Regarding `Cc1cc(OCc2ccc(-c3cccc(OC(F)(F)F)c3)nc2C)ccc1CCCCn1ccnn1` [Example 15, 2-Methyl-3-[3-Methyl-4-(4-[1,2,3]triazol-1-yl-butyl)-phenoxymethyl]-6-(3-trifluoromethoxy-phenyl)-pyridine], the IC50 was 1000 to 5000 nM. As for `Cc1nc(-c2ccc(F)cc2)ccc1COc1ccc(CSCCn2ccnn2)cc1` [Example 23, 6-(4-Fluoro-phenyl)-2-methyl-3-[4-(2-[1,2,3]triazol-1-yl-ethylsulfanylmethyl)-phenoxymethyl]-pyridine], the IC50 lay in the range of 1000 to 5000 nM. For `FC(F)(F)c1ccc(-c2cncc(COc3ccc(CCCCn4ccnn4)cc3)c2)cc1` [Example 33, 3-[4-(4-[1,2,3]Triazol-1-yl-butyl)-phenoxymethyl]-5-(4-trifluoromethyl-phenyl)-pyridine] the value was 1000 to 5000 nM; for `Cc1nc(-c2ccc(C(F)(F)F)cc2)ccc1COc1ccc(CSCCn2ccnn2)cc1` [Example 22, 2-Methyl-3-[4-(2-[1,2,3]triazol-1-yl-ethylsulfanylmethyl)-phenoxymethyl]-6-(4-trifluoromethyl-phenyl)-pyridine], 5 to 1000 nM; for `Clc1ccc(-c2cccc(COc3ccc(CCCCn4ccnn4)cc3)n2)cc1` [Example 35, 2-(4-Chloro-phenyl)-6-[4-(4-[1,2,3]triazol-1-yl-butyl)-phenoxymethyl]-pyridine], 1000 to 5000 nM.

`Cc1nc(-c2ccc(Cl)cc2)ccc1COc1ccc(CCCCn2ccnn2)cc1` [Example 20, 6-(4-Chloro-phenyl)-2-methyl-3-[4-(4-[1,2,3]triazol-1-yl-butyl)-phenoxymethyl]-pyridine] showed an IC50 of 5 to 1000 nM. Next, `Cc1cc(OCc2ccc(-c3ccc(C(F)(F)F)cc3F)nc2C)ccc1CCCCn1ccnn1` [Example 42, 6-(2-Fluoro-4-trifluoromethyl-phenyl)-2-methyl-3-[3-methyl-4-(4-[1,2,3]triazol-1-yl-butyl)-phenoxymethyl]-pyridine]: 5 to 1000 nM. Next, `Cc1nc(-c2ccc(F)cc2)ccc1COc1ccc(CCCCn2ccnn2)cc1` [Example 16, 6-(4-Fluoro-phenyl)-2-methyl-3-[4-(4-[1,2,3]triazol-1-yl-butyl)-phenoxymethyl]-pyridine]: 5 to 1000 nM; `Cc1cc(OCc2cccc(-c3ccc(OC(F)(F)F)cc3)n2)ccc1CCCCn1ccnn1` [Example 30, 2-[3-Methyl-4-(4-[1,2,3]triazol-1-yl-butyl)-phenoxymethyl]-6-(4-trifluoromethoxy-phenyl)-pyridine]: 1000 to 5000 nM.
